# Laboratory results taken from ChEMBL document CHEMBL5352429, “Designed symmetrical β-hairpin peptides for treating multidrug-resistant salmonella typhimurium infections” (Eur J Med Chem, 2022).
# Calls of active or inactive are those of the source. No cut-off for these calls is given here. Peptide text beside a SMILES is read from it.
# Tests used:
# Staphylococcus aureus [1] = test: Antibacterial activity against Staphylococcus aureus ATCC 29213 incubated overnight by standard microtiter dilution method; format: functional
# Staphylococcus aureus [2] = test: Antibacterial activity against methicillin-resistant Staphylococcus aureus ATCC 43300 incubated overnight by standard microtiter dilution method; format: functional
# [3] = system: Staphylococcus epidermidis; test: Antibacterial activity against methicillin-resistant Staphylococcus epidermidis ATCC 12228 incubated overnight by standard microtiter dilution method; format: functional
# Enterococcus faecalis = test: Antibacterial activity against Enterococcus faecalis ATCC 29212 incubated overnight by standard microtiter dilution method; format: functional
# Escherichia coli = test: Antibacterial activity against Escherichia coli O157:H7 CICC 21530 incubated overnight by standard microtiter dilution method; format: functional
# Salmonella paratyphi = test: Antibacterial activity against Salmonella paratyphi A CICC 21501 incubated overnight by standard microtiter dilution method; format: functional, Salmonella enterica subsp. enterica serovar Paratyphi A; settings: Salmonella enterica
# [4] = system: Salmonella enterica subsp. enterica serovar Paratyphi B; test: Antibacterial activity against Salmonella paratyphi B CICC 21495 incubated overnight by standard microtiter dilution method; format: functional
# [5] = Antibacterial activity against Salmonella paratyphi C CICC 21512 incubated overnight by standard microtiter dilution method; format: functional, Salmonella enterica subsp. enterica serovar Paratyphi C; settings: Salmonella enterica
# [6] = Antibacterial activity against Salmonella enterica subsp. enterica serovar Choleraesuis ATCC 13312 incubated overnight by standard microtiter dilution method; format: functional
# [7] = Antibacterial activity against Salmonella enterica subsp. enterica serovar Choleraesuis CICC 21493 incubated overnight by standard microtiter dilution method; format: functional
# Salmonella enteritidis = test: Antibacterial activity against Salmonella enteritidis CICC 21527 incubated overnight by standard microtiter dilution method; format: functional, Salmonella enterica subsp. enterica serovar Enteritidis; settings: Salmonella enterica
# [8] = Antibacterial activity against Salmonella wandsworth CICC 21504 incubated overnight by standard microtiter dilution method; format: functional, Salmonella enterica subsp. enterica serovar Wandsworth; settings: Salmonella enterica
# Salmonella typhimurium [9] = test: Antibacterial activity against Salmonella typhimurium CICC 21483 incubated overnight by standard microtiter dilution method; format: functional, Salmonella enterica subsp. enterica serovar Typhimurium; settings: Salmonella enterica
# Salmonella typhimurium [10] = test: Antibacterial activity against Salmonella typhimurium CICC 21913 incubated overnight by standard microtiter dilution method; format: functional, Salmonella enterica subsp. enterica serovar Typhimurium; settings: Salmonella enterica
# [11] = Antibacterial activity against Salmonella blockley CICC 21489 incubated overnight by standard microtiter dilution method; format: functional, Salmonella enterica subsp. enterica serovar Blockley; settings: Salmonella enterica
# [12] = Antibacterial activity against Salmonella dublin CICC 21497 incubated overnight by standard microtiter dilution method; format: functional, Salmonella enterica subsp. enterica serovar Dublin; settings: Salmonella enterica
# Salmonella typhimurium [13] = test: Antibacterial activity against Salmonella typhimurium DT104 ATCC 700408 incubated overnight by standard microtiter dilution method; format: functional, Salmonella enterica subsp. enterica serovar Typhimurium; settings: Salmonella enterica
# Candida albicans = test: Antifungal activity against Candida albicans ATCC 10231 incubated overnight by standard microtiter dilution method; format: functional
# Erythrocyte = test: Hemolytic activity in human Red blood cells assessed as hemolysis incubated for 1 hrs by absorbance based microplate reader analysis; format: toxicity, cell-based
# Salmonella typhimurium [14] = test: Antibacterial activity against Salmonella typhimurium DT104 in the presence of NaCl by MH broth based assay; format: functional, Salmonella enterica subsp. enterica serovar Typhimurium; settings: Salmonella enterica
# Salmonella typhimurium [15] = test: Antibacterial activity against Salmonella typhimurium DT104 in the presence of KCl by MH broth based assay; format: functional, Salmonella enterica subsp. enterica serovar Typhimurium; settings: Salmonella enterica
# Salmonella typhimurium [16] = test: Antibacterial activity against Salmonella typhimurium DT104 in the presence of NH4Cl by MH broth based assay; format: functional, Salmonella enterica subsp. enterica serovar Typhimurium; settings: Salmonella enterica
# Salmonella typhimurium [17] = test: Antibacterial activity against Salmonella typhimurium DT104 in the presence of CaCl2 by MH broth based assay; format: functional, Salmonella enterica subsp. enterica serovar Typhimurium; settings: Salmonella enterica
# Salmonella typhimurium [18] = test: Antibacterial activity against Salmonella typhimurium DT104 in the presence of MgCl2 by MH broth based assay; format: functional, Salmonella enterica subsp. enterica serovar Typhimurium; settings: Salmonella enterica
# Salmonella typhimurium [19] = test: Antibacterial activity against Salmonella typhimurium DT104 in the presence of FeCl3 by MH broth based assay; format: functional, Salmonella enterica subsp. enterica serovar Typhimurium; settings: Salmonella enterica
# Salmonella typhimurium [20] = test: Antibacterial activity against Salmonella typhimurium DT104 in the presence 25% inactivated mouse serum by MH broth based assay; format: functional, Salmonella enterica subsp. enterica serovar Typhimurium; settings: Salmonella enterica
# Salmonella typhimurium [21] = test: Antibacterial activity against Salmonella typhimurium DT104 in the presence 50% inactivated mouse serum by MH broth based assay; format: functional, Salmonella enterica subsp. enterica serovar Typhimurium; settings: Salmonella enterica
# [22] = Hemolytic activity in human Red blood cells assessed as hemolysis at 128 ug/ml incubated for 1 hrs by absorbance based microplate reader analysis relative to control; format: toxicity, cell-based, Erythrocyte; settings: red blood cells (erythrocytes), at 128 µg/mL, read-out: Activity
# Lipopolysaccharide (LPS) = test: Displacement of BODIPY-TR-cadaverine from Salmonella typhimurium LPS assessed as increase in fluorescence intensity by fluorescence spectrophotometric analysis; settings: Salmonella enterica subsp. enterica serovar Typhimurium; dose 0.25-8 µg/ml
# RAW264.7 [23] = test: Inhibition of LPS-stimulated NO production in mouse RAW264.7 cells incubated for 24 hrs by Griess reagent based analysis; format: functional, cell-based; settings: dose 1-128 µg/ml
# RAW264.7 [24] = test: Inhibition of LPS-stimulated TNF-alpha production in mouse RAW264.7 cells at 1 to 128 ug/ml incubated for 24 hrs by ELISA analysis; format: functional, cell-based; settings: dose 1-128 µg/ml
# RAW264.7 [25] = test: Inhibition of LPS-stimulated IL-1beta production in mouse RAW264.7 cells at 1 to 128 ug/ml incubated for 24 hrs by ELISA analysis; format: functional, cell-based; settings: dose 1-128 µg/ml
# RAW264.7 [26] = test: Inhibition of LPS-stimulated IL-8 production in mouse RAW264.7 cells at 1 to 128 ug/ml incubated for 24 hrs by ELISA analysis; format: functional, cell-based; settings: dose 1-128 µg/ml
Compound,MIC (Staphylococcus aureus [1]) [µg/mL],MIC (Staphylococcus aureus [2]) [µg/mL],MIC [3] [µg/mL],MIC (Enterococcus faecalis) [µg/mL],MIC (Escherichia coli) [µg/mL],MIC (Salmonella paratyphi) [µg/mL],MIC [4] [µg/mL],MIC [5] [µg/mL],MIC [6] [µg/mL],MIC [7] [µg/mL],MIC (Salmonella enteritidis) [µg/mL],MIC [8] [µg/mL],MIC (Salmonella typhimurium [9]) [µg/mL],MIC (Salmonella typhimurium [10]) [µg/mL],MIC [11] [µg/mL],MIC [12] [µg/mL],MIC (Salmonella typhimurium [13]) [µg/mL],MIC (Candida albicans) [µg/mL],MHC (Erythrocyte) [µg/mL],MIC (Salmonella typhimurium [14]) [µg/mL],further results
CC(C)[C@H](N)C(=O)N[C@@H](CCCCN)C(=O)N[C@@H](CS)C(=O)N[C@H](C(=O)N[C@@H](CCCCN)C(=O)N[C@@H](CO)C(=O)NCC(=O)N[C@@H](CS)C(=O)N[C@@H](CCCCN)C(=O)N[C@H](C(N)=O)C(C)C)[C@@H](C)O (H-VKCTKSGCKV-NH2),> 128,> 128,> 128,32,> 128,> 128,> 128,> 128,> 128,> 128,> 128,> 128,> 128,> 128,> 128,> 128,> 128,> 128,> 128,> 128,"MIC (Salmonella typhimurium [15]): > 128 µg/mL; MIC (Salmonella typhimurium [16]): > 128 µg/mL; MIC (Salmonella typhimurium [17]): > 128 µg/mL; MIC (Salmonella typhimurium [18]): > 128 µg/mL; MIC (Salmonella typhimurium [19]): > 128 µg/mL; MIC (Salmonella typhimurium [20]): > 128 µg/mL; MIC (Salmonella typhimurium [21]): > 128 µg/mL; hemolysis at 1 h, 128 ug/ml [22]: < 10%; Activity (Lipopolysaccharide (LPS)): Dose-Dependent Effect; inhibition (RAW264.7 [23]): Dose-Dependent Effect; inhibition (RAW264.7 [24]): Active; inhibition (RAW264.7 [25]): Active; inhibition (RAW264.7 [26]): Active"
C[C@@H](O)[C@H](NC(=O)[C@H](CS)NC(=O)[C@H](CCCCN)NC(=O)[C@@H](N)Cc1c[nH]c2ccccc12)C(=O)N[C@@H](CCCCN)C(=O)N[C@@H](CO)C(=O)NCC(=O)N[C@@H](CS)C(=O)N[C@@H](CCCCN)C(=O)N[C@@H](Cc1c[nH]c2ccccc12)C(N)=O (H-WKCTKSGCKW-NH2),> 128,> 128,128,128,64,128,16,64,8,> 128,> 128,64,> 128,> 128,> 128,> 128,> 128,64,> 128,> 128,"MIC (Salmonella typhimurium [15]): > 128 µg/mL; MIC (Salmonella typhimurium [16]): > 128 µg/mL; MIC (Salmonella typhimurium [17]): > 128 µg/mL; MIC (Salmonella typhimurium [18]): > 128 µg/mL; MIC (Salmonella typhimurium [19]): > 128 µg/mL; MIC (Salmonella typhimurium [20]): > 128 µg/mL; MIC (Salmonella typhimurium [21]): > 128 µg/mL; hemolysis at 1 h, 128 ug/ml [22]: < 10%; Activity (Lipopolysaccharide (LPS)): Dose-Dependent Effect; inhibition (RAW264.7 [23]): Dose-Dependent Effect; inhibition (RAW264.7 [24]): Active; inhibition (RAW264.7 [25]): Active; inhibition (RAW264.7 [26]): Active"
CC(C)C[C@H](NC(=O)[C@H](CCCCN)NC(=O)[C@H](CS)NC(=O)CNC(=O)[C@H](CO)NC(=O)[C@H](CCCCN)NC(=O)[C@@H](NC(=O)[C@H](CS)NC(=O)[C@H](CCCCN)NC(=O)[C@@H](N)CC(C)C)[C@@H](C)O)C(N)=O (H-LKCTKSGCKL-NH2),> 128,> 128,> 128,> 128,> 128,> 128,> 128,> 128,> 128,> 128,> 128,> 128,> 128,> 128,> 128,> 128,> 128,> 128,> 128,> 128,"MIC (Salmonella typhimurium [15]): > 128 µg/mL; MIC (Salmonella typhimurium [16]): > 128 µg/mL; MIC (Salmonella typhimurium [17]): > 128 µg/mL; MIC (Salmonella typhimurium [18]): > 128 µg/mL; MIC (Salmonella typhimurium [19]): > 128 µg/mL; MIC (Salmonella typhimurium [20]): > 128 µg/mL; MIC (Salmonella typhimurium [21]): > 128 µg/mL; hemolysis at 1 h, 128 ug/ml [22]: < 10%; Activity (Lipopolysaccharide (LPS)): Dose-Dependent Effect; inhibition (RAW264.7 [23]): Dose-Dependent Effect; inhibition (RAW264.7 [24]): Active; inhibition (RAW264.7 [25]): Active; inhibition (RAW264.7 [26]): Active"
[H]/N=C(/N)N[C@H]1[C@H](O)[C@@H](O)[C@H](O[C@@H]2O[C@@H](C)[C@](O)(C=O)[C@H]2O[C@@H]2O[C@@H](CO)[C@H](O)[C@@H](O)[C@@H]2NC)[C@@H](N/C(N)=N\[H])[C@@H]1O [STREPTOMYCIN],–,–,–,–,–,–,–,–,–,–,–,–,–,–,–,–,–,–,> 128,–,–
